Test systems include OVCAR-8 ovarian; A498 renal; HS 578T breast; OVCAR-5 ovarian; SK-MEL-28 melanoma; U251 CNS; SF-539 CNS; SK-MEL-5 melanoma; OVCAR-4 ovarian; M14 melanoma; EKVX NSCLC; RPMI-8226 leukemia; CAKI-1 renal; SF-268 CNS.
Holding throughout (test): inhibition of tumour cell growth, NCI panel, 48 h

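Cultured in 96-well plates, cells were exposed to test compound for 48 hours across five concentrations. TGI marks complete inhibition of growth.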 Where only a bound is given, the exact number is not on record here.

Take `CC1(C)CC2=C(Sc3ccccc3N2)C(=O)C1C(=O)C(=O)Nc1cc(Cl)ccc1Cl` (centres undefined): the TGI in the assay on OVCAR-8 ovarian, with A498 renal, with HS 578T breast, in the assay with OVCAR-5 ovarian, in the assay on SK-MEL-28 melanoma and in the assay with U251 CNS was more than 100 µM throughout. For the same compound, the TGI in the assay with SF-539 CNS, in the assay on SK-MEL-5 melanoma, in the assay on OVCAR-4 ovarian, in the assay on M14 melanoma, in the assay with EKVX NSCLC and in the assay with RPMI-8226 leukemia was more than 100 µM in each case. Further, the TGI in the assay on CAKI-1 renal and with SF-268 CNS was more than 100 µM throughout.
For the compound `Cc1cc(C)c2c(=N)c3ccccc3n(CCCCCCO)c2n1`, the TGI is 5.49 µM in the assay with OVCAR-8 ovarian; 26.9 µM with A498 renal; 8.37 µM in the assay on HS 578T breast; 21.2 µM with OVCAR-5 ovarian; 33 µM in the assay with SK-MEL-28 melanoma; 13.8 µM in the assay with U251 CNS. Further, the TGI in the assay on SF-539 CNS amounted to 9.48 µM; in the assay with SK-MEL-5 melanoma, 8.16 µM; in the assay on OVCAR-4 ovarian, 9.85 µM; in the assay on M14 melanoma, 16.6 µM; in the assay with EKVX NSCLC, 6.33 µM; in the assay on RPMI-8226 leukemia, 4.29 µM. The TGI stood at 8.31 µM in the assay with CAKI-1 renal and 13.9 µM with SF-268 CNS.
In the case of `COc1cc(OC)c2c(O)c(S(=O)(=O)c3ccc(C)cc3)c(=O)oc2c1`, the TGI with OVCAR-8 ovarian, in the assay with A498 renal, in the assay with HS 578T breast, with OVCAR-5 ovarian, in the assay on SK-MEL-28 melanoma and in the assay with U251 CNS was more than 100 µM in each case. Besides, the TGI with SF-539 CNS, with SK-MEL-5 melanoma, in the assay on OVCAR-4 ovarian, in the assay with M14 melanoma, in the assay on EKVX NSCLC and in the assay with RPMI-8226 leukemia was more than 100 µM each time. Moreover, the TGI in the assay with CAKI-1 renal and in the assay with SF-268 CNS was more than 100 µM in each case.
In the case of `COC1=CC(=O)c2c(O)c3c(c(O)c2C1=O)C[C@](C)(O)C[C@@H]3O`, the TGI with OVCAR-8 ovarian worked out at 15.7 µM; in the assay with A498 renal, 20.1 µM; in the assay with HS 578T breast, 81.4 µM; in the assay on OVCAR-5 ovarian, 27.8 µM; in the assay on SK-MEL-28 melanoma, 18.4 µM; in the assay on U251 CNS, 14.6 µM. Further, the TGI in the assay on SF-539 CNS turned out to be 9.89 µM; in the assay on SK-MEL-5 melanoma, 2.64 µM; with OVCAR-4 ovarian, 13.1 µM; in the assay with M14 melanoma, 8.59 µM; in the assay on EKVX NSCLC it was 23.6 µM; in the assay with RPMI-8226 leukemia, 40.2 µM. Also, the results for the TGI in the assay with CAKI-1 renal and in the assay with SF-268 CNS were 45.5 µM and 32.8 µM, respectively.
Turning to `CN(C)Cc1cc(C(=O)/C=C/c2cccc(Cl)c2)cc(CN(C)C)c1O`, the TGI with OVCAR-8 ovarian was 61.3 µM; in the assay with A498 renal, 14.2 µM; in the assay on HS 578T breast, 32.7 µM; with OVCAR-5 ovarian it was 19 µM; in the assay on SK-MEL-28 melanoma it was 17.1 µM; in the assay on U251 CNS, 12.3 µM. Further, the TGI stood at 19.5 µM with SF-539 CNS; 6.92 µM with SK-MEL-5 melanoma; 15.5 µM with M14 melanoma; 25.4 µM in the assay on EKVX NSCLC; 7.73 µM with RPMI-8226 leukemia; 4.3 µM with CAKI-1 renal. In the assay on SF-268 CNS, the TGI was determined as 24.1 µM.
Take `c1csc(-c2csc(-c3ccsc3)c2)c1`: the TGI with OVCAR-8 ovarian, with A498 renal, with HS 578T breast, in the assay with OVCAR-5 ovarian, in the assay with SK-MEL-28 melanoma and in the assay with U251 CNS was more than 100 µM in each case. Further, the TGI in the assay with SF-539 CNS was 98.6 µM; with SK-MEL-5 melanoma it was more than 100 µM; in the assay on OVCAR-4 ovarian it was more than 100 µM; in the assay on M14 melanoma it was more than 100 µM; in the assay on EKVX NSCLC, more than 100 µM; with RPMI-8226 leukemia, more than 100 µM. Moreover, the TGI in the assay with CAKI-1 renal and in the assay on SF-268 CNS was more than 100 µM each time.
On to `CNC(=S)N/N=C(\C)c1nc2ncccc2[nH]1`, for which the TGI with OVCAR-8 ovarian is more than 100 µM; in the assay on A498 renal, more than 100 µM; with HS 578T breast it was more than 84.3 µM; with OVCAR-5 ovarian, more than 100 µM; in the assay on SK-MEL-28 melanoma it was more than 100 µM; in the assay with U251 CNS it was more than 100 µM. The TGI in the assay on SF-539 CNS, in the assay with SK-MEL-5 melanoma, with OVCAR-4 ovarian, with M14 melanoma, in the assay on EKVX NSCLC and in the assay with RPMI-8226 leukemia was more than 100 µM each time. The TGI is 99.1 µM in the assay with CAKI-1 renal and more than 100 µM in the assay on SF-268 CNS.
`Cc1ccc(N=C2SC(c3ccc(C)cc3)(c3ccc(C)cc3)c3ccccc32)cc1`: the TGI with OVCAR-8 ovarian, with A498 renal, in the assay on HS 578T breast, in the assay on OVCAR-5 ovarian, in the assay on SK-MEL-28 melanoma and in the assay on U251 CNS was more than 100 µM in each case. Moreover, the TGI with SF-539 CNS, with SK-MEL-5 melanoma, with OVCAR-4 ovarian, with M14 melanoma, in the assay on EKVX NSCLC and with RPMI-8226 leukemia was more than 100 µM each time. Further, the TGI in the assay on CAKI-1 renal and in the assay on SF-268 CNS was more than 100 µM in each case.
For `CC(NNC(=O)c1ccncc1)c1ccc(Cl)c(Cl)c1` (centres undefined), the TGI in the assay on OVCAR-8 ovarian, in the assay on A498 renal, in the assay on HS 578T breast, in the assay on OVCAR-5 ovarian, in the assay on SK-MEL-28 melanoma and with U251 CNS was more than 100 µM each time. In addition, the TGI with SF-539 CNS, in the assay with SK-MEL-5 melanoma, in the assay on OVCAR-4 ovarian, in the assay on M14 melanoma, in the assay on EKVX NSCLC and in the assay with RPMI-8226 leukemia was more than 100 µM each time. For the same compound, the TGI with CAKI-1 renal and in the assay on SF-268 CNS was more than 100 µM each time.
Take `COc1cc(/C=C2\Cc3cc(OC)c(OC)cc3C2=O)cc(OC)c1`: the TGI in the assay on OVCAR-8 ovarian is more than 67.5 µM; in the assay on A498 renal, more than 100 µM; in the assay with HS 578T breast, more than 100 µM; with OVCAR-5 ovarian, more than 100 µM; in the assay with SK-MEL-28 melanoma it was more than 100 µM; in the assay with U251 CNS, more than 100 µM. Also, the TGI is more than 42.7 µM with SF-539 CNS; more than 100 µM in the assay on SK-MEL-5 melanoma; more than 88.7 µM in the assay with OVCAR-4 ovarian; more than 100 µM in the assay on M14 melanoma; more than 100 µM in the assay with EKVX NSCLC; more than 100 µM with RPMI-8226 leukemia. Besides, the TGI with CAKI-1 renal and in the assay with SF-268 CNS was more than 100 µM in each case.
